Drawing on publication doi:10.1101/2022.12.23.521429v4, “Structural perspective on the design of selective DYRK1B inhibitors” (biorxiv, 2025), this text covers Km and ΔTm for 2 compounds.

Test [1] addresses T1, DYRK1A kinase domain (126-490) (Homo sapiens, UniProt Q13627).
T1 construct: also printed 124-490 in b15 and 126-489), non-cleavable C-terminal His-tag kept; E. coli LOBSTR; Tyr321 phosphorylated; b63 prints Q9Y463 (swapped with DYRK1B)
Nature of the test: kinase activity assay. The class given is biochemical. Conditions: co-substrate and buffer of the KM determination not told.

Test [2] addresses T2, DYRK1B kinase domain (78-442) (Homo sapiens, UniProt Q9Y463).
T2 construct: kinase domain 78-442, C-terminal TEV site and His-tag (ENLYFQ*GHHHHHH), His-tag cleaved by TEV; E. coli LOBSTR; Tyr273 autophosphorylated
Nature of the test: Sypro Orange thermal shift assay. The class given is binding. Particulars: read-out: shift in Tm.

By Km is commonly meant the concentration of substrate that gives half-maximal velocity. With `Nc1ncnc2c1ncn2[C@@H]1O[C@H](COP(=O)(O)OP(=O)(O)OP(=O)(O)O)[C@@H](O)[C@H]1O` [ATP], the Km in test [1] turned out to be 118 µM. With `COc1cc(N2CCN(C)CC2)ccc1Nc1nccc(-c2cn(C)c3cnccc23)n1` [AZ191], in test [2], the ΔTm at 10 µM is 12 °C.
